What was measured:
Format in all cases: in vivo
Panelists [1] = test: Flavor modification of chicken broth: panel sensory rating; settings: 0.7 wt % sodium chloride, 0.04 wt % MSG, mean, scale of 0 to 10; for Lasting Umami Intensity: Sample C 3.1; for Umami Intensity: Sample C 4.3; for White Meat Intensity: Sample C 4.8; for Saltiness Intensity: Sample C 4.9; for Chicken Flavor Intensity: Sample C 5.3
Experimental: (§1) A series of test samples and a comparative sample were prepared. The comparative sample (C) was a standard reconstituted chicken broth solution containing 0.7 wt % sodium chloride and 0.04 wt % MSG. Two test samples were prepared. Each test sample contained chicken broth, sodium chloride, and MSG in the same amounts as the comparative sample plus 3 ppm of TM1 (sample S1) or 5 ppm of TM1 (sample S2). Panelists were asked to rate the intensity of certain sensory features of the samples on a scale of 0 to 10. Higher numbers indicate greater intensity.

Panelists [2] = test: MSG reduction with potato crisp: panel sensory rating; settings: Sample S1: 5 ppm TM1 on potato crisp, 2 wt % flavoring (sour cream and onion), 0.03 wt % MSG, 0.008 wt % purinic ribonucleotide, mean, scale of 0 to 10
Experimental: (§2) A test sample and a comparative sample were prepared. The comparative (sample C) was a standard potato crisp having 2 wt % flavoring (sour cream and onion), 0.03 wt % MSG, and 0.008 wt % purinic ribonucleotide. This reflects a 75% reduction of the standard amount of MSG used in such products (0.12 wt %). The test sample contained flavoring, MSG, and purinic ribonucleotide in the same amounts as the comparative sample plus 5 ppm of TM1 (sample S1). Panelists were asked to rate the intensity of certain sensory features of the samples on a scale of 0 to 10. Higher numbers indicate greater intensity.

Panelists [3] = test: Umami enhancement of MSG: panel sensory rating of aqueous sodium chloride/MSG samples; settings: mean, scale of 0 to 10; for Lasting Umami Intensity: Sample C 3.1; for Saltiness Intensity: Sample C 3.6; for Umami Intensity: Sample C 4.0
Experimental: as §1, with “contained 0.3” for “was a standard reconstituted chicken broth solution containing 0.7”, “0.05” for “0.04”, “contained” for “contained chicken broth,”, “chloride” for “chloride,”, “2” for “3”

Panelists [4] = test: MSG reduction with soy-based vegan chicken nugget: panel sensory rating; settings: Sample S1: 5 ppm TM1 in soy-based vegan chicken nugget, 1.68 wt % flavoring (chicken), 0.4 wt % MSG, 0.03 wt % purinic ribonucleotide, mean, scale of 0 to 10
Experimental: as §2, with “soy-based vegan chicken nugget” for “potato crisp”, “1.68” for “2”, “(chicken), 0.4” for “(sour cream and onion), 0.03”, “0.03” for “0.008”, “ribonucleotide.” for “ribonucleotide. This reflects a 75% reduction of the standard amount of MSG used in such products (0.12 wt %).”

[5] = Sample S1: 3 ppm TM1 in chicken broth, * significant vs C
[6] = Sample S2: 5 ppm TM1 in chicken broth, * significant vs C
[7] = Sample S2: 5 ppm TM1 in chicken broth
[8] = Sample C 2.1, * significant vs C
[9] = Sample S1: 2 ppm TM1 + 0.3 wt % sodium chloride + 0.05 wt % MSG
[10] = Sample S2: 5 ppm TM1 + 0.3 wt % sodium chloride + 0.05 wt % MSG, * significant vs C

## C/C(=C\CO)C(=O)NCCCCNC(=O)/C=C/c1ccccc1 [TM1, (E)-N-(4-cinnamamidobutyl)-4-hydroxy-2-methylbut-2-enamide]
Panelists [1]; [5]
  Lasting Umami Intensity: 4.2*
  Umami Intensity: 5.8*
  White Meat Intensity: 5.8*
  Chicken Flavor Intensity: 6.0*
Panelists [1]; Sample S1: 3 ppm TM1 in chicken broth
  Saltiness Intensity: 5.2
Panelists [1]; [6]
  Lasting Umami Intensity: 5.4*
  Umami Intensity: 6.2*
Panelists [1]; [7]
  White Meat Intensity: 4.8
  Saltiness Intensity: 4.8
  Chicken Flavor Intensity: 5.8
Panelists [2]; [8]
  Lasting Umami Intensity: 2.8*
  Sour Intensity: 2.9*
Panelists [2]; Sample C 2.9
  Saltiness Intensity: 3.1
Panelists [2]; Sample C 3.0, * significant vs C
  Umami Intensity: 3.6*
Panelists [3]; Sample S1: 2 ppm TM1 + 0.3 wt % sodium chloride + 0.05 wt % MSG, * significant vs C
  Lasting Umami Intensity: 4.2*
Panelists [3]; [9]
  Saltiness Intensity: 3.8
  Umami Intensity: 4.8
Panelists [3]; [10]
  Lasting Umami Intensity: 5.4*
  Umami Intensity: 6.0*
Panelists [3]; Sample S2: 5 ppm TM1 + 0.3 wt % sodium chloride + 0.05 wt % MSG
  Saltiness Intensity: 3.8
Panelists [4]; Sample C 4.6
  Saltiness Intensity: 4.4
Panelists [4]; Sample C 5.1, * significant vs C
  Umami Intensity: 5.8*
